Laboratory results reported in US8299020B2, “Antimicrobial peptides and methods of their use” (The Ohio State University Research Foundation, priority 2006, dated 2012).
Read-outs that look alike come from different tables or passages of the source.

Experiments:
[1] = solubility in water; type: physicochemical; conditions: neutral water
[2] = tested on: gram-negative bacteria; experiment: bioassay of activity against gram-negative bacteria; type: cell-based
Protocol: Antimicrobial activity determination. A qualitative and quantitative bioassay for antimicrobial potency was done using the spot-on-lawn method. An indicator lawn was prepared by pouring 10 ml soft agar (seeded with 200 μl overnight indicator culture) onto tryptose agar as a basal medium, in a petri dish. Escherichia coli K-12 and Lactobacillus plantarum ATCC 8014 were generally used as the gram-negative and gram-positive sensitive indicators, respectively, but other bacteria were tested to determine the OSY-DF antimicrobial spectrum (Table 1). For qualitative tests, aliquots (10 μl) of cell-free culture supernatant (pH 6.5) were spotted on indicator lawns, and the plates were incubated overnight for inhibition area observation. A clear inhibition area of ≧3 mm in diameter was recorded as positive. For the quantitative measurements, the cell-free culture supernatant was twofold serially diluted and dilutions were spotted onto the indicator lawn as just described. Antimicrobial activity was expressed in AU/ml; these values are the reciprocal of the highest dilution displaying a clear zone of inhibition that corresponds to 1 ml of the nondiluted supernatant.
Separation and purification by HPLC of the OSY-DF peptide. […] Elution was monitored at a wavelength of 220 nm, and fractions were collected manually for the antimicrobial activity bioassay. […]

[3] = tested on: Pseudomonas aeruginosa; conditions: background statement; cited from earlier work
[4] = tested on: gram-negative bacteria; conditions: background statement; cited from earlier work
[5] = tested on: Acinetobacter baumannii; conditions: background statement; cited from earlier work

Compound	solubility in water [1]	solubility in water ([1]; listed as OSY-DF peptide)	activity against gram-negative bacteria [2]	activity against Pseudomonas aeruginosa [3]	activity against gram-negative bacteria [4]	activity against Acinetobacter baumannii [5]
C=C1NC(=O)C2CSC(C)C(NC(=O)C3CSC(C)C4NC(=O)[C@H](CC(C)C)NC(=O)C(NC(=O)[C@H](CCCCN)NC(=O)C5CSCC(NC(=O)[C@@H](NC(=O)[C@H](CCCCN)NC(=O)[C@@H](NC(=O)/C(=C/C)NC(=O)/C(=C/C)NC(=O)[C@H](CCCCN)NC(=O)[C@@H](NC(=O)[C@@H](NC(=O)C(=C)NC(=O)[C@H](C)NC(C)=O)[C@@H](C)CC)[C@@H](C)CC)[C@@H](C)CC)C(C)C)C(=O)N[C@@H](CCCCN)C(=O)N[C@@H](C)C(=O)N[C@@H](C(C)C)C(=O)N5)C(C)SCC(NC4=O)C(=O)N[C@@H]([C@@H](C)CC)C(=O)N3)C(=O)NCC(=O)NC(CSCC(C(=O)N[C@@H](CCCCN)C(=O)O)NC(=O)[C@H](CC(N)=O)NC1=O)C(=O)N2 (stereo partly drawn) [Paenibacillin, (CH3CO-^1A)-Dha-I-I-K-Dhb-Dhb-I-K-V-A-K-A-V-A-K-Abu-L-Abu-A-I-A-Abu-G-A-A-Dha-N-A-K^30]	easy to dissolve	readily soluble	–	–	–	–
polymyxin E1	–	–	anti-gram-negative activity	active	specifically active	active
